Source: PMC12406685, “Thiazole substitution of a labile amide bond—a new option toward antiplasmodial pantothenamide-mimics” (Antimicrobial Agents and Chemotherapy, 2025)

Test system: PfPanK
Test: not given
Set-up: method as in PMID 29614109, PMID 11278793, PMID 24333332
Conditions: mean ± SEM; read-out: Km for pantothenate of PfPanK in parasite lysates; cited from earlier work

For CC(C)(CO)[C@@H](O)C(=O)NCCC(=O)O [D-Pantothenate], the Km is given as 270 ± 95 nM.

Test system: human hepatoblastoma cells (HepG2)
Test: In vitro HepG2 proliferation assay (Incucyte confluency)
Format: cell-based
Conditions: 10 µM
Protocol: (§1) HFF cells were maintained in vitro in DMEM supplemented with 10% (vol/vol) newborn calf serum, 50 units/mL penicillin, 50 µg/mL streptomycin, 10 µg/mL gentamicin, 0.2 mM L-glutamine, and 0.25 µg/mL amphotericin B, as previously described ([99]). HepG2 cells were maintained in RPMI-1640 medium (Thermo Fisher Scientific, catalogue number 72400120) supplemented with 10% (vol/vol) fetal bovine serum, 50 units/mL penicillin, and 50 µg/mL streptomycin.
In vitro HepG2 proliferation assays were performed similarly to the HFF proliferation assays with modifications. Confluent HepG2 cells were harvested by treatment with 1 × trypsin–EDTA and diluted in RPMI-1640 supplemented with 10% (vol/vol) fetal bovine serum. Assays were set up in 96-well microtiter plates with 20,000 cells per well. Puromycin (10 µM) was used as a non-proliferation control, and 0.1% (vol/vol) DMSO served as a 100% proliferation control. The plates were incubated at 37°C in a CO2 incubator for 72 h, and the Incucyte Live-Cell Analysis System (Essen BioScience) was used to capture cellular changes and assess cell growth in each well over time as described above for the HFF proliferation assays. The bottom of the curve was constrained to 0 when fitting for HepG2 proliferation assays using GraphPad Prism.

For COc1ccc(C[C@H](N)C(=O)N[C@H]2[C@@H](O)[C@H](n3cnc4c(N(C)C)ncnc43)O[C@@H]2CO)cc1 [puromycin, reference compound], the “Effect on proliferation of HepG2 cells (positive control)” value was “completely inhibited”.

Biological target: T1, HsPanK3 (Homo sapiens, UniProt Q9H999)
T1 sequence (Q9H999 12-368): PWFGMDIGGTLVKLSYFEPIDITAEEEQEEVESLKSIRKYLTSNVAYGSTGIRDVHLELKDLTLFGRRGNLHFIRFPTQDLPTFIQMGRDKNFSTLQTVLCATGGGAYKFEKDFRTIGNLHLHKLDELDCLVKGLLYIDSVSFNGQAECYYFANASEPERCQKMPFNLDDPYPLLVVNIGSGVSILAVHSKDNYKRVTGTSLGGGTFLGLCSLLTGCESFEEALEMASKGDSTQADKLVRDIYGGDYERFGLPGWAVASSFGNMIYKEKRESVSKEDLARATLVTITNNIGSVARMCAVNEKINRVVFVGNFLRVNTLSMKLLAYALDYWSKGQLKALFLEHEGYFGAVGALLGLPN
Test: not given
Conditions: read-out: Km for pantothenate of HsPanK3, previous reports; cited from earlier work

In the case of CC(C)(CO)[C@@H](O)C(=O)NCCC(=O)O [D-Pantothenate], the Km is listed as 17 ± 1 µM.

Test system: intraerythrocytic P. falciparum
Test: not given
Conditions: absence of pantetheinases; read-out: IC50 in the absence of pantetheinases; cited from earlier work

In the case of CCCCCNC(=O)CCNC(=O)[C@H](O)C(C)(C)CO [Compound N5-Pan], the IC50 is given as 2000 ± 500 nM.

Same assay, conditions: in the presence of pantetheinases; read-out: IC50 against intraerythrocytic P. falciparum; cited from earlier work

Point of comparison: CCCCCn1cc(CNC(=O)[C@H](O)C(C)(C)CO)nn1 [compound i], IC50 56 ± 5 nM. Against it:
- CCCCCc1nnc(CNC(=O)[C@H](O)C(C)(C)CO)s1 [compound v] — 17-fold higher, 960 ± 50 nM
- CCCCCCn1cc(CNC(=O)[C@H](O)C(C)(C)CO)nn1 [ii] — within error, 55 ± 5 nM
- CCCCCc1cc(CNC(=O)[C@H](O)C(C)(C)CO)no1 [iii] — within 1.5-fold, 72 ± 3 nM
- CCCCCCc1cc(CNC(=O)[C@H](O)C(C)(C)CO)no1 [iv] — 2.9-fold higher, 160 ± 10 nM

Same assay, conditions: presence of pantetheinases; read-out: IC50 in the presence of pantetheinases; cited from earlier work

In the case of CCCCCNC(=O)CCNC(=O)[C@H](O)C(C)(C)CO [Compound N5-Pan], the IC50 is listed as 124000 ± 15000 nM.

Test system: intraerythrocytic P. falciparum
Test: In vitro parasite proliferation assay (SYBR Safe-based fluorescence)
Format: cell-based, Plasmodium falciparum (3D7 strain)
Conditions: Plasmodium falciparum; intraerythrocytic stage, RPMI-1640 containing 1 µM pantothenate, 96 h; mean ± SEM of three experiments; read-out: IC50 (µM) against Pf at 1 µM Pan
Protocol: Culturing of intraerythrocytic stage P. falciparum parasites (3D7 strain) was carried out using a method adapted from Trager and Jensen ([97]) and Allen and Kirk ([98]). Parasites were maintained within human, male or female, erythrocytes (typically Group O+, Rh+, 4% hematocrit) in RPMI-1640 medium (Thermo Fisher Scientific, catalogue number 72400120) supplemented with 25 mM HEPES, 11 mM glucose, 200 μM hypoxanthine, 24 μg/mL gentamicin and 6 g/L Albumax II on a horizontally rotating shaking incubator (New Brunswick Innova 42/[…]) at 37°C under an atmosphere of 96% nitrogen, 3% carbon dioxide, and 1% oxygen. To evaluate the effect of each compound on the in vitro proliferation of P. falciparum parasites, a SYBR Safe-based fluorescence assay was used as previously described ([32]). All pantothenamide-mimics tested were initially dissolved to a concentration of 200 mM in DMSO. The final DMSO concentration in the assay never exceeded 0.1% (vol/vol). Assays were performed using the same medium used to culture the parasites. […] Assays were set up with synchronous ring-stage P. falciparum-infected erythrocytes in 96-well microtiter plates. Parasites were synchronized using 5% (wt/vol) sorbitol ([100]). […] P. falciparum-infected erythrocytes incubated in the presence of 0.5 μM chloroquine were used as a non-proliferation control, and those incubated in the absence of compounds and chloroquine served as a 100% parasite proliferation control. To minimize “edge effects” ([101], [102]), the outermost rows and columns of the microtiter plates were not used in the proliferation assays and were filled with 200 μL of medium. The plates were then incubated at 37°C for 96 h under a low-oxygen atmosphere. At the end of the incubation, plates were frozen at -80°C to lyse the cells. […] The fluorescence in the non-proliferation control wells was subtracted from the fluorescence readings in the other wells prior to further analysis. Parasite proliferation, calculated as a percentage of the fluorescence measured in the test wells relative to the fluorescence measured in the 100% parasite proliferation control wells, was then plotted against the logarithm of the compound concentration. […] IC50 values (determined from the sigmoidal curves) were averaged from three independent experiments.

Point of comparison: CCCCc1ncc(CNC(=O)[C@H](O)C(C)(C)CO)s1 [Compound 3a], IC50 11 ± 1 µM. Against it:
- CC(C)(CO)[C@@H](O)C(=O)NCc1cnc(-c2ccc(F)cc2)s1 [Compound 3g] — within error, 14 ± 2 µM
- CC(C)(CO)[C@@H](O)C(=O)NCc1cnc(-c2cccc(C(F)(F)F)c2)s1 [Compound 3j] — the same, 11 ± 1 µM
- CCCCCc1ncc(CNC(=O)[C@H](O)C(C)(C)CO)s1 [Compound 3b] — within error, 12 ± 1 µM
- CC(C)CCc1csc(CNC(=O)[C@H](O)C(C)(C)CO)n1 [Compound 1b] — 3.8-fold lower, 2.9 ± 0.2 µM
- CCCCCCc1nc(CNC(=O)[C@H](O)C(C)(C)CO)cs1 [Compound 2b] — 2.1-fold lower, 5.2 ± 0.6 µM
- CC(C)(CO)[C@@H](O)C(=O)NCc1cnc(-c2ccc(C(F)(F)F)cc2)s1 [Compound 3i] — 4.2-fold higher, 46 ± 6 µM
- CCCCCc1nc(CNC(=O)[C@H](O)C(C)(C)CO)cs1 [Compound 2a] — 2-fold lower, 5.6 ± 0.2 µM
- CC(C)(CO)[C@@H](O)C(=O)NCc1cnc(Cc2ccccc2)s1 [Compound 3d] — within 1.5-fold, 16 ± 1 µM
- CC(C)(CO)[C@@H](O)C(=O)NCc1cnc(-c2ccc(Cl)cc2)s1 [Compound 3h] — 4-fold higher, 44 ± 4 µM
- CC(C)(CO)[C@@H](O)C(=O)NCc1csc(-c2ccc(Cl)cc2)n1 [Compound 2f] — 3.5-fold lower, 3.1 ± 0.3 µM
- CC(C)(CO)[C@@H](O)C(=O)NCc1csc(-c2cccc(C(F)(F)F)c2)n1 [Compound 2h] — 1.9-fold higher, 21 ± 1 µM
- CC(C)(CO)[C@@H](O)C(=O)NCc1cnc(CCc2ccccc2)s1 [Compound 3e] — 4-fold higher, 44 ± 1 µM
- CC(C)(CO)[C@@H](O)C(=O)NCc1csc(-c2ccc(C(F)(F)F)cc2)n1 [Compound 2g] — 5.2-fold higher, 57 ± 2 µM
- CCCCCCc1ncc(CNC(=O)[C@H](O)C(C)(C)CO)s1 [Compound 3c] — 3.2-fold higher, 35 ± 2 µM
- CCCCCCc1csc(CNC(=O)[C@H](O)C(C)(C)CO)n1 [Compound 1d] — 2.6-fold lower, 4.3 ± 0.4 µM
- CC(C)(CO)[C@@H](O)C(=O)NCc1csc(Cc2ccc3ccccc3c2)n1 [Compound 2d] — 1.7-fold lower, 6.5 ± 0.1 µM

Test system: human foreskin fibroblasts (HFF)
Test: In vitro HFF proliferation assay (Incucyte confluency)
Format: cell-based
Conditions: 10 µM
Protocol: as §1
In vitro HFF proliferation assays were performed as previously described by Howieson et al. ([32]), with modifications. Confluent HFF cells (in a 75 cm^2 flask) were harvested by treatment with 1 × trypsin–EDTA (0.25% [wt/vol] trypsin +0.2 g/L EDTA) and diluted in 21 mL of DMEM supplemented with 10% [vol/vol] newborn calf serum ([32]). Assays were set up in 96-well microtiter plates in a similar way to that described for the antiplasmodial activity assay. Cycloheximide (10 µM) was used as a non-proliferation control, and 0.1% (vol/vol) DMSO served as a 100% proliferation control. The plates were incubated at 37°C in a CO2 incubator for 96 h, and the Incucyte Live-Cell Analysis System (Essen BioScience) was used to capture cellular changes and assess cell growth in each well over time. Each well was scanned to capture bright field images, and confluency was assessed at the end of the 96 h incubation, which was then used to evaluate the effect of each compound on the proliferation of HFF cells by comparing it to the 100% proliferation control. The bottom of the curve was constrained to 0 when fitting for HFF proliferation assays using GraphPad Prism.

With C[C@@H]1C[C@@H]([C@H](O)CC2CC(=O)NC(=O)C2)C(=O)[C@@H](C)C1 [Cycloheximide, reference compound] the “Effect on proliferation of HFF cells (positive control)” value was “completely inhibited the proliferation”.
